Activity calls are given as the source filed them. No rule for the calls is given here.
Tested on: CCRIS mutagenicity, Ames/micronucleus/aberration tests
Assay: CCRIS mutagenicity studies
Source text: The CCRIS database contains chemical records with carcinogenicity, mutagenicity, tumor promotion, and tumor inhibition test results. It was developed by the National Cancer Institute (NCI). Data are derived from studies cited in primary journals, current awareness tools, NCI reports, and other sources. Test results have been reviewed by experts in carcinogenesis and mutagenesis.
CCRIS provides historical information from the years 1985 - 2011. It is no longer updated.
This is an archive assay for CCRIS mutagenicity studies.

**Q.** Which results are given for `CC(=O)c1cc(C(C)(C)C)cc2c1CCC2(C)C`?
**A.** mutagenic call (Test System: AMES SALMONELLA TYPHIMURIUM, Strain/Indicator: TA97, Metabolic Activation: NONE, Method: STANDARD PLATE): inactive; negative; mutagenic call (Test System: AMES SALMONELLA TYPHIMURIUM, Strain/Indicator: TA97, Metabolic Activation: RAT LIVER S-9, AROCLOR 1254, Method: STANDARD PLATE): inactive; negative; mutagenic call (Test System: AMES SALMONELLA TYPHIMURIUM, Strain/Indicator: TA98, Metabolic Activation: NONE, Method: STANDARD PLATE): inactive; negative; mutagenic call (Test System: AMES SALMONELLA TYPHIMURIUM, Strain/Indicator: TA98, Metabolic Activation: RAT LIVER S-9, AROCLOR 1254, Method: STANDARD PLATE): inactive; negative; mutagenic call (Test System: AMES SALMONELLA TYPHIMURIUM, Strain/Indicator: TA100, Metabolic Activation: NONE, Method: STANDARD PLATE): inactive; negative; mutagenic call (Test System: AMES SALMONELLA TYPHIMURIUM, Strain/Indicator: TA100, Metabolic Activation: RAT LIVER S-9, AROCLOR 1254, Method: STANDARD PLATE): inactive; negative; mutagenic call (Test System: AMES SALMONELLA TYPHIMURIUM, Strain/Indicator: TA102, Metabolic Activation: NONE, Method: STANDARD PLATE): inactive; negative; mutagenic call (Test System: AMES SALMONELLA TYPHIMURIUM, Strain/Indicator: TA102, Metabolic Activation: RAT LIVER S-9, AROCLOR 1254, Method: STANDARD PLATE): inactive; negative

**Q.** `CN(C)CCNC(=O)c1ccc2ccc3cccnc3c2n1` was tested. Which mutagenic call (Test System: AMES SALMONELLA TYPHIMURIUM, Strain/Indicator: TA1537, Metabolic Activation: NONE, Method: STANDARD PLATE) did it give?
**A.** active; positive

**Q.** With `c1ccc(-c2ccnc3c2ccc2c(-c4ccccc4)ccnc23)cc1` as the compound, how does the mutagenic call (Test System: Mouse lymphoma, Strain/Indicator: L5178Y (tk+/tk-), Metabolic Activation: None, Method: Suspension/plate) read?
**A.** active; positive

**Q.** And the mutagenic call (Test System: Mouse lymphoma, Strain/Indicator: L5178Y (tk+/tk-), Metabolic Activation: Rat, Liver, S-9, Aroclor 1254, Method: Suspension/plate)?
**A.** equivocal

**Q.** `Cc1ccc(N)c(C)c1` was tested. Which mutagenic call (End Point: IN VITRO CHROMOSOMAL ABERRATIONS, Test System: CHL CELLS, Metabolic Activation: RAT, LIVER, S-9, SODIUM PHENOBARBITAL AND 5,6-BENZOFLAVONE) did it give?
**A.** active; positive (structural and ploidy changes)

**Q.** What about the mutagenic call (Test System: AMES SALMONELLA TYPHIMURIUM, Strain/Indicator: TA97, Metabolic Activation: HAMSTER, LIVER, S-9, AROCLOR 1254 (10%), Method: PREINCUBATION) of the same compound?
**A.** active; positive

**Q.** What about the mutagenic call (Test System: AMES SALMONELLA TYPHIMURIUM, Strain/Indicator: TA97, Metabolic Activation: NONE, Method: PREINCUBATION) of the same compound?
**A.** inactive; negative

**Q.** What about the mutagenic call (Test System: AMES SALMONELLA TYPHIMURIUM, Strain/Indicator: TA97, Metabolic Activation: RAT, LIVER, S-9, AROCLOR 1254 (10%), Method: PREINCUBATION) of the same compound?
**A.** inactive; negative

**Q.** And the mutagenic call (Test System: AMES SALMONELLA TYPHIMURIUM, Strain/Indicator: TA98, Metabolic Activation: HAMSTER, LIVER, S-9, AROCLOR 1254 (10%), Method: PREINCUBATION)?
**A.** active; positive

**Q.** What about the mutagenic call (Test System: AMES SALMONELLA TYPHIMURIUM, Strain/Indicator: TA98, Metabolic Activation: NONE, Method: PREINCUBATION) of the same compound?
**A.** inactive; negative

**Q.** And the mutagenic call (Test System: AMES SALMONELLA TYPHIMURIUM, Strain/Indicator: TA98, Metabolic Activation: RAT, LIVER, S-9, AROCLOR 1254 (10%), Method: PREINCUBATION)?
**A.** active; positive

**Q.** What about the mutagenic call (Test System: AMES SALMONELLA TYPHIMURIUM, Strain/Indicator: TA98, Metabolic Activation: S-9, Method: PREINCUBATION) of the same compound?
**A.** inactive; negative

**Q.** And the mutagenic call (Test System: AMES SALMONELLA TYPHIMURIUM, Strain/Indicator: TA100, Metabolic Activation: HAMSTER, LIVER, S-9, AROCLOR 1254 (10%), Method: PREINCUBATION)?
**A.** active; positive

**Q.** What about the mutagenic call (Test System: AMES SALMONELLA TYPHIMURIUM, Strain/Indicator: TA100, Metabolic Activation: MOUSE, LIVER, S-9, AROCLOR 1254, Method: STANDARD PLATE) of the same compound?
**A.** active; positive

**Q.** What about the mutagenic call (Test System: AMES SALMONELLA TYPHIMURIUM, Strain/Indicator: TA100, Metabolic Activation: NONE, Method: PREINCUBATION) of the same compound?
**A.** inactive; negative

**Q.** And the mutagenic call (Test System: AMES SALMONELLA TYPHIMURIUM, Strain/Indicator: TA100, Metabolic Activation: RAT, LIVER, S-9, AROCLOR 1254 (10%), Method: PREINCUBATION)?
**A.** active; positive

**Q.** And the mutagenic call (Test System: AMES SALMONELLA TYPHIMURIUM, Strain/Indicator: TA100, Metabolic Activation: RAT, LIVER, S-9, AROCLOR 1254, Method: STANDARD PLATE)?
**A.** active; positive

**Q.** And the mutagenic call (Test System: AMES SALMONELLA TYPHIMURIUM, Strain/Indicator: TA100, Metabolic Activation: S-9, Method: PREINCUBATION)?
**A.** active; positive

**Q.** And the mutagenic call (Test System: AMES SALMONELLA TYPHIMURIUM, Strain/Indicator: TA1535, Metabolic Activation: HAMSTER, LIVER, S-9, AROCLOR 1254 (10%), Method: PREINCUBATION)?
**A.** inactive; negative

**Q.** And the mutagenic call (Test System: AMES SALMONELLA TYPHIMURIUM, Strain/Indicator: TA1535, Metabolic Activation: NONE, Method: PREINCUBATION)?
**A.** inactive; negative

**Q.** And the mutagenic call (Test System: AMES SALMONELLA TYPHIMURIUM, Strain/Indicator: TA1535, Metabolic Activation: RAT, LIVER, S-9, AROCLOR 1254 (10%), Method: PREINCUBATION)?
**A.** inactive; negative

**Q.** What about the mutagenic call (Test System: AMES SALMONELLA TYPHIMURIUM, Strain/Indicator: TA1537, Metabolic Activation: HAMSTER, LIVER, S-9, AROCLOR 1254 (10%), Method: PREINCUBATION) of the same compound?
**A.** inactive; negative

**Q.** What about the mutagenic call (Test System: AMES SALMONELLA TYPHIMURIUM, Strain/Indicator: TA1537, Metabolic Activation: RAT, LIVER, S-9, AROCLOR 1254 (10%), Method: PREINCUBATION) of the same compound?
**A.** inactive; negative

**Q.** What about the mutagenic call (Test System: UDS RODENT HEPATOCYTES, Strain/Indicator: THY INCORP (NON-S-PHASE), Metabolic Activation: NONE, Method: AUTORADIOGRAPHY) of the same compound?
**A.** active; positive

— PubChem BioAssay AID1259407 (Chemical Carcinogenesis Research Information System (CCRIS), 2018)
